Results on two compounds are retold here after patent US20120177681A1, “Formulation of immunopotentiators” (priority 2010, published 2012).

Series [1] can be described thus: Desorption from Al—H by phosphate / buffer anions. Type of series: physicochemical. Conditions: KH2PO4 0.5M final, pH 9, overnight at 37° C.
Series [2] in a line: Solubility in histidine buffer at pH 6.8. In kind it is physicochemical.
Series [3] is described as follows: Model of in vivo desorption from Al—H. As to conditions: 37° C. In kind it is in vitro ADME.
A short description of series [4]: Adsorption to aluminium hydroxide (Al—H), HPLC of supernatant. In kind it is physicochemical. Conditions: parent compound, in words.
Series [5] can be described thus: Confocal microscopy / flow cytometry of association with Al—H. In kind it is physicochemical. As to conditions: in the presence of Al—H. On the technique in general: Flow cytometry measures light scatter and fluorescence of single cells or particles in a stream.

With `Cc1ccc2c(c1)nc(N)c1ncc(CCc3ccc(OCCCP(=O)(O)O)cc3C)cc12` [Compound 13], in series [1], the “compound in supernatant after KH2PO4 treatment (displacement / desorption)” value is listed as “Increased quantities”. Also, in series [2], the “solubility in histidine buffer” value is “poorly soluble”. Besides, the “proportion desorbed after 5 hours” value is reported as 2% in series [3] (His buff), 9% in series [3] (Plasma/His buff) and 4% in series [3] (SIF (simulated interstitial fluid)).

As for `Cc1ccc(CCc2cnc3c(N)nc4cc(C)ccc4c3c2)c(C)c1` [compound O], the “adsorption to the Al—H adjuvant” value in series [4] was “fails to adsorb”. Besides, the “co-localisation with Al—H (flow cytometry)” value in series [5] is reported as “separate population”.
